Data as given in patent publication US11168073B2, “3,3-difluoroallylamines or salts thereof and pharmaceutical compositions comprising the same” (YUHAN CORPORATION, priority 2018, dated 2021).
Structures can show the parent of a compound that is named as a salt.

Columns and labels:
Format in all cases: biochemical
[1] = target: T1, recombinant human MAO-B (monoamine oxidase-B) (Homo sapiens, UniProt P27338); assay: Activity evaluation on recombinant human MAO-B (Amplex Red/HRP-coupled assay, 1 mM benzylamine substrate); settings: 1 mM benzylamine substrate, read-out: Inhibitory Activity (IC50, nM) MAO-B
T1 construct: purchased Sigma-Aldrich
T1 sequence (P27338 1-520): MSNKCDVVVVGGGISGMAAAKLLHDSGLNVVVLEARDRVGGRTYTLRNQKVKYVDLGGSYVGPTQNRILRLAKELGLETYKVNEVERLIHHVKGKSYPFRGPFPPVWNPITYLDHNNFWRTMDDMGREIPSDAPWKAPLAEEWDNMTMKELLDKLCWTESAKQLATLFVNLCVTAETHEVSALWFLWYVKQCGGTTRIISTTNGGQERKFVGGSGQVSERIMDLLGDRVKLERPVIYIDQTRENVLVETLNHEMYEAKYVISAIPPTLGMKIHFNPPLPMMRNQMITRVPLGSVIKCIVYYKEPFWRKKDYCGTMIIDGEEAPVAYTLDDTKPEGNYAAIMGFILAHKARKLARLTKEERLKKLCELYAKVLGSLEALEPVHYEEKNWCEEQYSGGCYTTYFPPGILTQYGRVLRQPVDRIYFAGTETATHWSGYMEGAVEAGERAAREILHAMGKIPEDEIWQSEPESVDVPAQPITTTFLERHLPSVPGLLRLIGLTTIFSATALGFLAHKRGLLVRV
Method in brief: (§1)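 Each oxidase is tested with its own substrate: MAO-A with 0.5 mM tyramine, MAO-B with 1 mM benzylamine, DAO with 1 mM putrescine. After 30 min enzyme-compound preincubation at 37 °C, Amplex Red (200 uM) plus HRP (1 U/mL) reports H2O2 as fluorescence; IC50 is fitted from eight-point curves.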

[2] = target: T2, recombinant human MAO-A (monoamine oxidase-A) (Homo sapiens, UniProt P21397); assay: Activity evaluation on recombinant human MAO-A (Amplex Red/HRP-coupled assay, 0.5 mM tyramine substrate); settings: 0.5 mM tyramine substrate, read-out: Inhibitory Activity (IC50, nM) MAO-A
T2 construct: purchased Sigma-Aldrich
T2 sequence (P21397 1-527): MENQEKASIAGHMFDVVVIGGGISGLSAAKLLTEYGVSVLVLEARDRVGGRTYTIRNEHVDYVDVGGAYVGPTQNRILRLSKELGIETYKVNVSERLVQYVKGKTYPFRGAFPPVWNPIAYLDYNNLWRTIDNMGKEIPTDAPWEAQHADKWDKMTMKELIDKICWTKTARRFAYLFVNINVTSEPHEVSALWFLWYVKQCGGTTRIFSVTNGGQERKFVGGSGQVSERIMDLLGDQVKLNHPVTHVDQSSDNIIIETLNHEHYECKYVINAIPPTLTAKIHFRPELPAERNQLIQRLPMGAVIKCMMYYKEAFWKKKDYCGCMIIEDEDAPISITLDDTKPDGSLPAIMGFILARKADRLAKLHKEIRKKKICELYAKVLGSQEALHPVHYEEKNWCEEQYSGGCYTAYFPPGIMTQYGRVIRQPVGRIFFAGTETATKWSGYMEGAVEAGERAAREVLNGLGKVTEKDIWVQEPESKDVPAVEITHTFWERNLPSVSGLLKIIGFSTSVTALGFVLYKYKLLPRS
Method in brief: as §1

[3] = target: T3, recombinant human VAP-1 (Homo sapiens, UniProt Q16853); assay: Activity evaluation on recombinant human VAP-1 (Amplex Red/HRP-coupled hydrogen peroxide assay, benzylamine substrate); settings: recombinant human VAP-1, benzylamine substrate; read-out: Inhibitory Activity (IC50, nM) human VAP-1
T3 construct: purchased R&D systems
T3 sequence (Q16853 1-763): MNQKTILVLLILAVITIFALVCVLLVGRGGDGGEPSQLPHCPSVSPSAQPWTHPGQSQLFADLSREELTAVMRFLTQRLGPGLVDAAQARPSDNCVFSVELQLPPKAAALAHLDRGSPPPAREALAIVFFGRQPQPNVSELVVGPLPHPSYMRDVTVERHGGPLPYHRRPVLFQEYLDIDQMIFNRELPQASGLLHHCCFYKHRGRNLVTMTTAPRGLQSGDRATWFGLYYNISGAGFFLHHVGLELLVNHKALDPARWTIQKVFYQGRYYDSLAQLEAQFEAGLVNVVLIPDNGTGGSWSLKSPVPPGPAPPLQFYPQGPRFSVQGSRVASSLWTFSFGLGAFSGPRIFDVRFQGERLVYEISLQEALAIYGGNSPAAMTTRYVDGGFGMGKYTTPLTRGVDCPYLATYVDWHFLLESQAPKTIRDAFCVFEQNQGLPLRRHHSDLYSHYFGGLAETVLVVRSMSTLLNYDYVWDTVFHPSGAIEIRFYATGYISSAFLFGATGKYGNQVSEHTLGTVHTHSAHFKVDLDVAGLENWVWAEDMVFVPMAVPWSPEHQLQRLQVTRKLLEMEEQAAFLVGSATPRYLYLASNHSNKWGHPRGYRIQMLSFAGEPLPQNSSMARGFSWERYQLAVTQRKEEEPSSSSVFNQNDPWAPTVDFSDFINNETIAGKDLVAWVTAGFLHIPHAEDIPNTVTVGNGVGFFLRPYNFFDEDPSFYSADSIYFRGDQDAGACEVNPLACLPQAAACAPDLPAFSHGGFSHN
Method in brief: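 Hydrogen peroxide from benzylamine (1 mM) oxidation by human recombinant VAP-1 detected via HRP-coupled Amplex Red (200 uM) fluorescence, kinetic over 1–2 h. Enzyme and compound preincubated 30 min at 37 °C, pH 7.4 phosphate; 8-point dose response, signal-rate decrease versus DMSO control fitted to four-parameter logistic for IC50.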

[4] = target: T4, recombinant human DAO (diamine oxidase) (Homo sapiens, UniProt P19801); assay: Activity evaluation on recombinant human DAO (Amplex Red/HRP-coupled assay, 1 mM putrescine substrate); settings: 1 mM putrescine substrate, read-out: Inhibitory Activity (IC50, nM) DAO
T4 construct: purchased R&D systems
T4 sequence (P19801 20-751): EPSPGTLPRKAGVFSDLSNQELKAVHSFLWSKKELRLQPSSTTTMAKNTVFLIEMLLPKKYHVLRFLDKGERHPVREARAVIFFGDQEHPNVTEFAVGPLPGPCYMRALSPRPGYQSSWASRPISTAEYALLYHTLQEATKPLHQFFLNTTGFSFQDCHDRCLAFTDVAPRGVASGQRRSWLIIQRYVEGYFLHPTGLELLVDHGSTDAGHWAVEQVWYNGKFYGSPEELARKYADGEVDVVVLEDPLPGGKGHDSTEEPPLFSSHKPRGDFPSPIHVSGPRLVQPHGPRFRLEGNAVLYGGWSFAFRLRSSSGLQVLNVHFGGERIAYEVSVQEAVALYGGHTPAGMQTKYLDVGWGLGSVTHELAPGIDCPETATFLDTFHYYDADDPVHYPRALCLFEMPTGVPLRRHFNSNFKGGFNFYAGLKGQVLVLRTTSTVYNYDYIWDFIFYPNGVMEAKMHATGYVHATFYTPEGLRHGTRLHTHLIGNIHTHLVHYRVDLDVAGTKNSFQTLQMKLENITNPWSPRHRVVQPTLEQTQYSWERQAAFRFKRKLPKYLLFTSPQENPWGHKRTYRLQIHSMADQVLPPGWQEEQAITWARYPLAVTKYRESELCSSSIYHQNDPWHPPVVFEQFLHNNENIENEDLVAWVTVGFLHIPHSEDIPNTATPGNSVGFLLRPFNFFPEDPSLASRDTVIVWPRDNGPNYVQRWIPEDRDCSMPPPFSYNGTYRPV
Method in brief: as §1

IC50 [1]: > 100000 nM | IC50 [2]: > 100000 nM | IC50 [3]: 0.7 nM | IC50 [4]: 12600 nM
Structure (SMILES): Cc1cc(-c2cc(F)c(Cn3cnn(CC(CN)=C(F)F)c3=O)s2)cc2c1NC(=O)CC2 [Example 304, 6-(5-((1-(2-(aminomethyl)-3,3-difluoroallyl)-5-oxo-1,5-dihydro-4H-1,2,4-triazol-4-yl)methyl)-4-fluorothiophen-2-yl)-8-methyl-3,4-dihydroquinolin-2(1H)-one Trifluoroacetate]
